In PMC10048095, “Sol-Gel Films Doped with Enzymes and Banana Crude Extract as Sensing Materials for Spectrophotometric Determination” (Gels, 2023):

Key:
[1] = biological target: T1, Horseradish peroxidase (HRP) (Armoracia rusticana, UniProt P00433); test: absorbance at […] nm, initial rates; format: biochemical; details: H2O2 as co-substrate; enzyme in solution and in sol-gel films; pH 6.0
T1 construct: gene PRXC1A
T1 sequence (P00433 31-338): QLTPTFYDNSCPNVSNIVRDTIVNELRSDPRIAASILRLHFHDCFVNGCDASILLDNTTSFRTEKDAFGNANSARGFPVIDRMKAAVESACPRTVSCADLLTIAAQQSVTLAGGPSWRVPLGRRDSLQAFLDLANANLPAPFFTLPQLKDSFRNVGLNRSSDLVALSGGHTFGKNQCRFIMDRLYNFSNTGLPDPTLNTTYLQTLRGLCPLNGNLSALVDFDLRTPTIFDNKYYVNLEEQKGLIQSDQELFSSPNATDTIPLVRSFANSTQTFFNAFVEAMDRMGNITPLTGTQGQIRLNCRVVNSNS

Mushroom tyrosinase (MT) = tested on: T2, Mushroom tyrosinase (MT); details: read-out: KM, mM / Solution; free enzyme in solution; pH 6.0 buffer; air oxygen
T2 construct: gene PPO3

Row | Km (Mushroom tyrosinase (MT)) [mM] | Structure (SMILES) | absorbance at 650 nm, initial rates [1]
1 |  | Cc1cc(-c2cc(C)c(N)c(C)c2)cc(C)c1N [3,3′,5,5′-tetramethylbenzidine] | hydrogen peroxide reduction with TMB oxidation
2 | 1.1 | O=C(O)/C=C/c1ccc(O)c(O)c1 [Caffeic acid] | 
